SMILES strings stand for the structures.

The target in this assay is hENPP2 (Homo sapiens, UniProt Q13822). Kind of assay: Human ENPP2 (hENPP2) biochemical assay using LPC as substrate. As to conditions: 150 µM LPC (palmitoyl 16:0), 37°C for 30 min. The essentials: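 IC50 came from compound series (top 50 µM, 1/3 steps) incubated 30 min at 37°C with 1 or 3 µg/mL final enzyme and palmitoyl LPC added at 150 µM, pH 8.5 Tris buffer with Ca2+. Choline output measured as quinoneimine dye at 555 nm via coupled oxidase/HRP/TOOS detection.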
In the case of `Cc1cc(C)cc(Nc2ncc3c(n2)CN(C2CC(C)N(C(=O)c4ccc5[nH]nnc5c4)C(C)C2)C3)c1` (stereo not shown) [compound 68, 1H-benzotriazol-5-yl-[4-[2-(3,5-dimethylanilino)-5,7-dihydropyrrolo[3,4-d]pyrimidin-6-yl]-2,6-dimethyl-1-piperidyl]methanone], the half-inhibitory concentration (IC50) (as a rule, the concentration needed to halve the response being measured) is over 1000 nM.
Regarding `Cc1cc(C)cc(Nc2ncc3c(n2)CN(C2CCN(C(=O)c4ccc5[nH]c(=O)sc5c4)CC2)C3)c1` [compound 69, 6-[4-[2-(3,5-dimethylanilino)-5,7-dihydropyrrolo[3,4-d]pyrimidin-6-yl]piperidine-1-carbonyl]-3H-1,3-benzothiazol-2-one], the IC50 lay in the range of 0.01 to 100 nM.
In turn, `Cc1cc(C)cc(Nc2ncc3c(n2)CN(C2CN(C(=O)c4ccc5[nH]c(=O)sc5c4)C2)C3)c1` [compound 70, 6-[3-[2-(3,5-dimethylanilino)-5,7-dihydropyrrolo[3,4-d]pyrimidin-6-yl]azetidine-1-carbonyl]-3H-1,3-benzothiazol-2-one] showed a half-inhibitory concentration (IC50) of 0.01 to 100 nM.
Then `Cc1cc(C)cc(Nc2ncc3c(n2)CN(C2CCN(C(=O)c4ccc(NS(C)(=O)=O)cc4)CC2)C3)c1` [compound 72, N-[4-[4-[2-(3,5-dimethylanilino)-5,7-dihydropyrrolo[3,4-d]pyrimidin-6-yl]piperidine-1-carbonyl]phenyl]methanesulfonamide], with over 1000 nM; and `Cc1cc(C)cc(Nc2ncc3c(n2)CN([C@@H]2CCN(C(=O)c4ccc5[nH]nnc5c4)[C@H](C)C2)C3)c1` [compound 73, 1H-benzotriazol-5-yl-[(2R,4R)-4-[2-(3,5-dimethylanilino)-5,7-dihydropyrrolo[3,4-d]pyrimidin-6-yl]-2-methyl-1-piperidyl]methanone], with 0.01 to 100 nM; and `Cc1cc(C)cc(Nc2ncc3c(n2)CN([C@H]2CCN(C(=O)c4ccc5[nH]nnc5c4)[C@@H](C)C2)C3)c1` [compound 74, 1H-benzotriazol-5-yl-[(2S,4S)-4-[2-(3,5-dimethylanilino)-5,7-dihydropyrrolo[3,4-d]pyrimidin-6-yl]-2-methyl-1-piperidyl]methanone], with 0.01 to 100 nM.
The value for `Cc1cc(C)cc(Nc2ncc3c(n2)CCCN(C2CCN(C(=O)c4ccc5nn[nH]c5c4)CC2)C3)c1` [compound 75, 3H-benzotriazol-5-yl-[4-[2-(3,5-dimethylanilino)-5,7,8,9-tetrahydropyrimido[5,4-c]azepin-6-yl]-1-piperidyl]methanone] was over 1000 nM; that for `Cc1cc(C)cc(Nc2ncc3c(n2)CN(C2CN(C(=O)c4ccc5nn[nH]c5c4)CC2C)C3)c1` (stereo not shown) [compound 77, 3H-benzotriazol-5-yl-[3-[2-(3,5-dimethylanilino)-5,7-dihydropyrrolo[3,4-d]pyrimidin-6-yl]-4-methyl-pyrrolidin-1-yl]methanone] was 100 to 500 nM.
Molecule `Cc1cc(C)cc(Nc2ncc3c(n2)CN(C2[C@@H]4C[C@H]2CN(C(=O)c2ccc5[nH]nnc5c2)C4)C3)c1` (stereo partly drawn) [compound 78, 1H-benzotriazol-5-yl-[(1R,5S)-6-[2-(3,5-dimethylanilino)-5,7-dihydropyrrolo[3,4-d]pyrimidin-6-yl]-3-azabicyclo[3.1.1]heptan-3-yl]methanone] returned an IC50 of 0.01 to 100 nM.
Then `Cc1cc(C)cc(Nc2ncc3c(n2)CN(C2CCN(C(=O)c4cc5[nH]nnc5cc4F)CC2)C3)c1` [compound 79, [4-[2-(3,5-dimethylanilino)-5,7-dihydropyrrolo[3,4-d]pyrimidin-6-yl]-1-piperidyl]-(6-fluoro-3H-benzotriazol-5-yl)methanone], with 0.01 to 100 nM; and `Cc1cc(C)cc(Nc2ncc3c(n2)CN(C2CN(C(=O)c4cc5[nH]nnc5cc4F)C2)C3)c1` [compound 80, [3-[2-(3,5-dimethylanilino)-5,7-dihydropyrrolo[3,4-d]pyrimidin-6-yl]azetidin-1-yl]-(6-fluoro-3H-benzotriazol-5-yl)methanone], with 0.01 to 100 nM.
The value for `COc1cc2[nH]nnc2cc1C(=O)N1CC(N2Cc3cnc(Nc4cc(C)cc(C)c4)nc3C2)C1` [compound 81, [3-[2-(3,5-dimethylanilino)-5,7-dihydropyrrolo[3,4-d]pyrimidin-6-yl]azetidin-1-yl]-(6-methoxy-1H-benzotriazol-5-yl)methanone] was 0.01 to 100 nM; that for `Cc1cc(C)cc(Nc2ncc3c(n2)CN(C2CN(C(=O)c4cc5nn[nH]c5cc4F)CC2C)C3)c1` (stereo not shown) [compound 82, [3-[2-(3,5-dimethylanilino)-5,7-dihydropyrrolo[3,4-d]pyrimidin-6-yl]-4-methyl-pyrrolidin-1-yl]-(6-fluoro-1H-benzotriazol-5-yl)methanone] was 100 to 500 nM; that for `COc1cc2[nH]nnc2cc1C(=O)N1CC(C)C(N2Cc3cnc(Nc4cc(C)cc(C)c4)nc3C2)C1` (stereo not shown) [compound 83, [3-[2-(3,5-dimethylanilino)-5,7-dihydropyrrolo[3,4-d]pyrimidin-6-yl] -4-methyl-pyrrolidin-1-yl]-(6-methoxy-1H-benzotriazol-5-yl)methanone] was 100 to 500 nM.
`Cc1cc(C)cc(Nc2ncc3c(n2)CN(C2=C(C#N)CN(C(=O)c4ccc5nn[nH]c5c4)C2)C3)c1` [compound 85, 1-(3H-benzotriazole-5-carbonyl)-4-[2-(3,5-dimethylanilino)-5,7-dihydropyrrolo[3,4-d]pyrimidin-6-yl]-2,5-dihydropyrrole-3-carbonitrile] returned a concentration for half-maximal inhibition (IC50) of 100 to 500 nM.
Then `Cc1cc(C)cc(Nc2ncc3c(n2)CCN(C2CN(C(=O)c4ccc5nn[nH]c5c4)CC2C)C3)c1` (stereo not shown) [compound 87, 3H -benzotriazol-5-yl-[3-[2-(3,5-dimethylanilino)-7,8-dihydro-5H-pyrido[4,3-d]pyrimidin-6-yl] -4-methyl-pyrrolidin-1-yl]methanone], with 0.01 to 100 nM.
The value for `COc1cc2[nH]nnc2cc1C(=O)N1CC(C)C(N2CCc3nc(Nc4cc(C)cc(C)c4)ncc3C2)C1` (stereo not shown) [compound 88, [3-[2-(3,5-dimethylanilino)-7,8-dihydro-5H-pyrido[4,3-d]pyrimidin-6-yl]-4-methyl-pyrrolidin-1-yl]-(6-methoxy-1H-benzotriazol-5-yl)methanone] was 0.01 to 100 nM; that for `Cc1cc(C)cc(Nc2ncc3c(n2)CN([C@H]2CCN(C(=O)c4ccc5[nH]nnc5c4)[C@H](C)C2)C3)c1` [compound 92, 1H-benzotriazol-5-yl-[(2R,4S)-4-[2-(3,5-dimethylanilino)-5,7-dihydropyrrolo[3,4-d]pyrimidin-6-yl]-2-methyl-1-piperidyl]methanone] was 0.01 to 100 nM.
Then `Cc1cc(C)cc(Nc2ncc3c(n2)CN([C@@H]2CCN(C(=O)c4ccc5[nH]nnc5c4)[C@@H](C)C2)C3)c1` [compound 93, 1H-benzotriazol-5-yl-[(2S,4R)-4-[2-(3,5-dimethylanilino)-5,7-dihydropyrrolo[3,4-d]pyrimidin-6-yl]-2-methyl-1-piperidyl]methanone], with 0.01 to 100 nM.
`Cc1cc(C)cc(Nc2ncc3c(n2)CCCN(C2CN(C(=O)c4ccc5[nH]nnc5c4)C2)C3)c1` [compound 94, 1H-benzotriazol-5-yl-[3-[2-(3,5-dimethylanilino)-5,7,8,9-tetrahydropyrimido[5,4-c]azepin-6-yl]azetidin-1-yl]methanone] returned an IC50 of over 1000 nM.
Then `Cc1cc(C)cc(Nc2ncc3c(n2)C(C)(C)N(C2CN(C(=O)c4ccc5[nH]nnc5c4)C2)C3)c1` [compound 95, 1H-benzotriazol-5-yl-[3-[2-(3,5-dimethylanilino)-7,7-dimethyl-5H-pyrrolo[3,4-d]pyrimidin-6-yl]azetidin-1-yl]methanone], with 0.01 to 100 nM; and `Cc1cc(C)cc(Nc2ncc3c(n2)CCN([C@@H]2CCN(C(=O)c4ccc5[nH]nnc5c4)[C@H](C)C2)C3)c1` [compound 98, 1H-benzotriazol-5-yl-[(2R,4R)-4-[2-(3,5-dimethylanilino)-7,8-dihydro-5H-pyrido[4,3-d]pyrimidin-6-yl]-2-methyl-1-piperidyl]methanone], with 100 to 500 nM.
For the molecule `COc1cc2[nH]nnc2cc1C(=O)N1CC[C@@H](N2Cc3cnc(Nc4cc(C)cc(C)c4)nc3C2)C[C@H]1C` [compound 105, [(2R,4R)-4-[2-(3,5-dimethylanilino)-5,7-dihydropyrrolo[3,4-d]pyrimidin-6-yl]-2-methyl-1-piperidyl]-(6-methoxy-1H-benzotriazol-5-yl)methanone], the concentration for half-maximal inhibition (IC50) was 0.01 to 100 nM.
The value for `COc1cc2[nH]nnc2cc1C(=O)N1CCC(N2Cc3cnc(Nc4cc(C)cc(C)c4)nc3C2)CC1` [compound 106, [4-[2-(3,5-dimethylanilino)-5,7-dihydropyrrolo[3,4-d]pyrimidin-6-yl]-1-piperidyl]-(6-methoxy-1H-benzotriazol-5-yl)methanone] was 0.01 to 100 nM; that for `Cc1cc(C)cc(Nc2ncc3c(n2)CN(C2CCN(C(=O)c4ccc5[nH]nnc5c4)C(C(F)(F)F)C2)C3)c1` (stereo not shown) [compound 107, 1H-benzotriazol-5-yl-[4-[2-(3,5-dimethylanilino)-5,7-dihydropyrrolo[3,4-d]pyrimidin-6-yl]-2-(trifluoromethyl)-1-piperidyl]methanone] was 0.01 to 100 nM.
Then `Cc1cc(C)cc(Nc2ncc3c(n2)CCN(C2CCN(C(=O)c4ccc5[nH]nnc5c4)CC2)CC3)c1` [compound 109, 1H-benzotriazol-5-yl-[4-[2-(3,5-dimethylanilino)-5,6,8,9-tetrahydropyrimido[4,5-d]azepin-7-yl]-1-piperidyl]methanone], with 0.01 to 100 nM; and `COc1cc2[nH]nnc2cc1C(=O)N1CC[C@@H](N2Cc3cnc(Nc4cc(C)cc(C)c4)nc3C2)C[C@@H]1C` [compound 112, [(2S,4R)-4-[2-(3,5-dimethylanilino)-5,7-dihydropyrrolo[3,4-d]pyrimidin-6-yl]-2-methyl-1-piperidyl]-(6-methoxy-1H-benzotriazol-5-yl)methanone], with 0.01 to 100 nM; and `COc1cc2[nH]nnc2cc1C(=O)N1CC[C@H](N2Cc3cnc(Nc4cc(C)cc(C)c4)nc3C2)C[C@@H]1C` [compound 113, [(2S,4S)-4-[2-(3,5-dimethylanilino)-5,7-dihydropyrrolo[3,4-d]pyrimidin-6-yl]-2-methyl-1-piperidyl]-(6-methoxy-1H-benzotriazol-5-yl)methanone], with 0.01 to 100 nM.

Source of the values: EP3782997A1, “FUSED PYRIMIDINE COMPOUNDS AND PHARMACEUTICAL COMPOSITIONS THEREOF FOR THE TREATMENT OF FIBROTIC DISEASES” (Galapagos N.V., priority 2019, dated 2021).
